Here are results for ten compounds from patent US20020173640A1, “ADAM polynucleotides, polypeptides, and antibodies” (Human Genome Sciences, Inc., priority 1999, published 2002).

One assay addresses T1, hADAM-19 (Homo sapiens, UniProt Q9H013).
T1 construct: made in house
T1 sequence (Q9H013 26-701 isoform Q9H013-2): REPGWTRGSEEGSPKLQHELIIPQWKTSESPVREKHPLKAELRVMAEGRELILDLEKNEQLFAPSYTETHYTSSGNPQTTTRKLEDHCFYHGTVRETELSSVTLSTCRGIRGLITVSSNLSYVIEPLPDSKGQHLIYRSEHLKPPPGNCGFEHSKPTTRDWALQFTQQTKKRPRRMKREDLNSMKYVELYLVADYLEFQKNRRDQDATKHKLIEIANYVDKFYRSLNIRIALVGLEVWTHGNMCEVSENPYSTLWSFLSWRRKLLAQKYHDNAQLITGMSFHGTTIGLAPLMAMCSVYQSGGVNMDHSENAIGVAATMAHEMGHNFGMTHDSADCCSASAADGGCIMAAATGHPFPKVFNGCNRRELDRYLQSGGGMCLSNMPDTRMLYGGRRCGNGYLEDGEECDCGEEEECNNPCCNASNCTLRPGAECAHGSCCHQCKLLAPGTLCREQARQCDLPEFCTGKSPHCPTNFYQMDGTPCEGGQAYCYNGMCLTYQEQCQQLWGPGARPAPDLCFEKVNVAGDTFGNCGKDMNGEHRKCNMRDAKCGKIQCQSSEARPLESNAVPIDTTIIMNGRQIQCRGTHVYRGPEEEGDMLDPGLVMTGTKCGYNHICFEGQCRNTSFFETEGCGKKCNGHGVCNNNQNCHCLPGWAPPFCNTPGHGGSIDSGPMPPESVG
The experiment in a line: Inhibition of α2-M cleavage by hADAM-19 (SDS-PAGE, silver staining). The assay is classed as biochemical. The protocol:
20 mM EDTA, 20 rmiM EGTA, 10 mM HgCl2, 1 miM TIMP-1,-2 (TIMP: hADAM-19 molar ratio was 100:1) and three commercial (CALBIOCHEM) small molecule human MMP inhibitors were used to inhibit α2-M cleavage by hADAM-19. […] Briefly, different concentrations of those inhibitors were mixed with 7.5 μl of hADAM-19 (50 μg/ml) in 22.9 μl of 1× HEPES buffer (50 mM HEPES, pH 7.5, 0.2 M NaCl, 10 mM CaCl2, 25 μM ZnCl, and 0.05%Brij-35) and incubated at room temperature (24° C.) for 2-hr, then 7.1 μl of substrate α2-M (0.2 unit/ml) were added and incubated at 37° C. for 20-hr. The reactions were stopped by adding 4× sample bufer and boiled immediately for 5 minutes. After SDS-PAGE, the protein bands were visualized by silver staining.

For another assay, the system named is HIV. To be noted: cited from earlier work.
Assay [1] concerns viruses containing the K103N mutation. To be noted: cited from earlier work.
Setting [2] is: summary statement, concentration not given.

Where two headings read alike, the source gives them in different places.

In the case of `O=C(O)CN(CCOCCOCCN(CC(=O)O)CC(=O)O)CC(=O)O` [EGTA], the “blockage of hADAM-19 digestion of α2-M” value on hADAM-19 (20 mM inhibitor) is “completely blocked”. Further, on hADAM-19 (setting [2]), the “blockage of hADAM-19 proteolytic activity against α2-M” value (“blockage … against α2-M” for short) was “blocked completely”. With `C[C@H](Sc1nc(N)cc(Cl)n1)c1cc2ccoc2cn1` [PNU-142721], the “activity relative to delavirdine” value in the assay on HIV (greater activity than its predecessor delavirdine) is 20- to 50 fold. Also, the “activity against K103N mutants” value in assay [1] is given as “active against K103N mutants”. In the case of “TIMP-1: tissue inhibitor of metalloproteinases”, the “blockage of hADAM-19 digestion of α2-M” value with hADAM-19 (TIMP:hADAM-19 molar ratio of 100:1) is “Neither TIMP-1 or TIMP-2 at TIMP:hADAM-1 9 molar ratio of 100:1 were able to block”. Also, in the assay with hADAM-19 (setting [2]), the “blockage … against α2-M” value is “not blocked”. For `c1cnc2c(c1)ccc1cccnc12` [1,10-phenathroline], the “blockage … against α2-M” value at hADAM-19 (setting [2]) is reported as “blocked completely”. Regarding `CC(C)c1nc(COC(N)=O)n(Cc2ccncc2)c1Sc1cc(Cl)cc(Cl)c1` [CAPRAVIRINE], the “activity against K103N mutants” value in assay [1] was “activity against viruses containing the K103N mutation”. In the case of `CC[C@H]1C(=O)Nc2ccc(F)cc2N1C(=O)OC(C)C` [GW-420867X], in the assay on HIV (greater activity than HBY097), the “activity relative to HBY097” value is recorded as 25 fold. Besides, the “activity against K103N mutants” value in assay [1] is given as “active against K103N mutants”. `COc1ccc(S(=O)(=O)N(CC(=O)NO)CC(C)C)cc1` [MMP-3 inhibitor II, N-Isobutyl-N-(4-methoxyphenylsulfonyl)-glycylhydroxamic acid]: the “blockage of hADAM-19 digestion of α2-M” value on hADAM-19 (100 µM inhibitor) and at hADAM-19 (1 mM inhibitor) was “partially blocked” each time. Turning to `[Cl][Hg][Cl]` [HgCl2], the “blockage of hADAM-19 digestion of α2-M” value on hADAM-19 (10 mM inhibitor) is “completely blocked”. In addition, at hADAM-19 (setting [2]), the “blockage … against α2-M” value is “blocked completely”.

For `Nc1nc(=O)n([C@@H]2CS[C@H](CO)O2)cc1F` [COVIRACIL, emtricitabine], the “activity in vitro relative to lamivudine (3TC)” value in the assay with HIV (greater activity than lamivudine (3TC)) is given as 3- to 10 fold. Consider `O=C(O)CN(CCN(CC(=O)O)CC(=O)O)CC(=O)O` [EDTA], for which, at hADAM-19, the “blockage of hADAM-19 digestion of α2-M” value was “completely blocked” and the “blockage … against α2-M” value is recorded as “blocked completely”.
